The results in this text go back to patent publication US4839374A, “4-((Bicyclic heterocyclyl)-methyl and -hetero)-piperidines” (Janssen Pharmaceutica, N.V., priority 1987, dated 1989).

Structures are written as SMILES.

For the first test, the system named is compound 48/80-induced lethality. Kind of test: Protection of rats from compound 48/80-induced lethality. The settings on record: Rattus norvegicus, 4 h, read-out: Compound 48/80 lethality test in rats ED50, s.c. or p.o. 1 h before compound 48/80 0.5 mg/kg i.v.; protection of 50% of animals, survival after 4 hours. The class given is in vivo, rats of an inbred Wistar strain. On the procedure:
Protection of rats from compound 48/80-induced lethality
The protection from compound 48/80-induced lethal circulatory collapse appears to be a simple way of evaluating quantitatively the antihistaminic activity of test compounds. Male rats of an inbred Wistar strain, weighing 240-260 g were used in the experiment. After overnight starvation the rats were transferred to conditioned laboratories (temp.=21±1° C., relative humidity=65+5%). The rats were treated subcutaneously or orally with a test compound or with the solvent (NaCl solution, 0.9%). […] Survival after 4 hours is therefore considered to be a safe criterion of a protective effect of drug administration. The ED50 -values of the compounds of formula (I) are listed in the first column of tables 1 to 4. Said ED50 -values are the values in mg/kg body weight at which the tested compounds protect 50% of the tested animals against compound 48/80-induced lethality. The compounds of formula (I) and the pharmaceutically acceptable acid addition salts thereof are also potent serotonin-antagonists. The potency of the subject compounds as serotonin-antagonists is clearly evidenced by the results obtained in the following tests wherein the antagonistic activity of the subject compounds on the effect of serotonin is examined.
For `OCCN1CCC(Cc2nc3cccnc3n2Cc2ccc(F)cc2)CC1` [Compound 115, 4-[[3-[(4-fluorophenyl)methyl]-3H-imidazo[4,5-b]pyridin-2-yl]methyl]-1-piperidineethanol], the ED50 was 0.16 mg/kg. Still for that read-out and setting: to `Fc1ccc(Cn2c(CC3CCN(CCNc4ccncn4)CC3)nc3ccccc32)cc1` [Compound 501] belongs 0.04 mg/kg. As for `O=C(Cc1ccsc1)NCCN1CCC(Cc2nc3ccccc3n2Cc2ccc(F)cc2)CC1` [Compound 440, N-[2-[4-[[1-[(4-fluorophenyl)methyl]-1H-benzimidazol-2-yl]methyl]-1-piperidinyl]ethyl]-3-thiopheneacetamide], the ED50 was determined as 0.02 mg/kg. Still for that read-out and setting: to `Cn1cnc2c(NCCN3CCC(Cc4nc5ccccc5n4Cc4ccc(F)cc4)CC3)ncnc21` [Compound 369] belongs 0.04 mg/kg; to `Cc1nc2ccccn2c(=O)c1CCN1CCC(Cc2nc3ccccc3n2Cc2cccs2)CC1` [Compound 257], 0.02 mg/kg.

As for `Fc1ccc(Cn2c(SC3CCN(CCNc4ncccn4)CC3)nc3ccccc32)cc1` [Compound 333, N-[2-[4-[[1-[(4-fluorophenyl)methyl]-1H-benzimidazol-2-yl]thio]-1-piperidinyl]ethyl]-2-pyrimidinamine], the ED50 is 0.04 mg/kg. The same measure, in the same setting: the figure for `O=c1[nH]c2ccccc2c(=O)n1CCCN1CCC(Cc2nc3cccnc3n2Cc2ccco2)CC1` [Compound 169] is 0.02 mg/kg. The same measure, in the same setting: the figure for `O=c1[nH]c2ccccc2n1CCCN1CCC(Cc2nc3cccnc3n2Cc2cccs2)CC1` [Compound 215] is 0.08 mg/kg; for `N#CCN1CCC(Cc2nc3cccnc3n2Cc2ccc(F)cc2)CC1` [Compound 290] it is 0.08 mg/kg; for `Fc1ccc(Cn2c(CC3CCN(CCOCc4ccccn4)CC3)nc3cccnc32)cc1` [Compound 394, 3-[(4-fluorophenyl)methyl]-2-[[1-[2-(2-pyridinylmethoxy)ethyl]-4-piperidinyl]-methyl]-3H-imidazol[4,5-b]pyridine] it is 0.02 mg/kg. The same measure, in the same setting: to `O=C(NCCN1CCC(Cc2nc3ccccc3n2Cc2ccc(F)cc2)CC1)c1cc(O)c2ccccc2n1` [Compound 444, N-[2-[4-[[1-[(4-fluorophenyl)methyl]-1H-benzimidazol-2-yl]methyl]-1-piperidinyl]ethyl]-4-hydroxy-2-quinolinecarboxamide] belongs 0.16 mg/kg; to `O=c1[nH]c2ccccc2n1CCCN1CCC(Sc2nc3ccccc3n2Cc2ccc(F)cc2)CC1` [Compound 255], 0.16 mg/kg; to `Nc1ccccc1C(=O)NCCCCN1CCC(Cc2nc3ccccc3n2Cc2ccco2)CC1` [Compound 472, 2-amino-N-[4-[4-[[1-(2-furanylmethyl)-1H-benzimidazol-2-yl]methyl]-1-piperidinyl]butyl]benzamide], 0.04 mg/kg. In the case of `CC(C)N1CCC(Cc2nc3cnccc3n2Cc2ccc(F)cc2)CC1` [Compound 100], the ED50 turned out to be 0.16 mg/kg.

On to `CCn1nnn(CCN2CCC(Cc3nc4ccccc4n3Cc3ccc(F)cc3)CC2)c1=O` [Compound 123], for which the ED50 was found to be 0.01 mg/kg.

In the case of `Cc1nc2sccn2c(=O)c1CCN1CCC(Cc2nc3cccnc3n2Cc2ccco2)CC1` [Compound 173], the ED50 was 0.01 mg/kg. Same read-out and setting: the figure for `O=c1c2ccccc2[nH]c(=S)n1CCN1CCC(Cc2nc3cccnc3n2Cc2ccc(F)cc2)CC1` [Compound 463, 3-[2-[4-[[3-[(4-fluorophenyl)methyl]-3H-imidazo[4,5-b]pyridin-2-yl]methyl]-1-piperidinyl]ethyl]-2,3-dihydro-2-thioxo-4(1H)quinazolinone] is 0.08 mg/kg; for `c1csc(Cn2c(CC3CCNCC3)nc3ccccc32)c1` [Compound 64, 2-(4-piperidinylmethyl)-1-(2-thienylmethyl)-1H-benzimidazole] it is 0.04 mg/kg. On the same count and under the same terms, to `c1ccc(Cn2c(CC3CCNCC3)nc3ccccc32)cc1` [Compound 40, 1-(phenylmethyl)-2-(4-piperidinylmethyl)-1H-benzimidazole] belongs 0.08 mg/kg. Still for that read-out and setting: to `Cc1ccc(Cn2c(CC3CCN(C)CC3)nc3ccccc32)cc1` [Compound 81, 1-[(4-methylphenyl)methyl]-2-[(1-methyl-4-piperidinyl)methyl]-1H-benzimidazole] belongs 0.08 mg/kg; to `COc1ccc(CCN2CCC(Cc3nc4cnccc4n3Cc3ccc(F)cc3)CC2)cc1` [Compound 202, 1-[(4-fluorophenyl)methyl]-2-[[1-[2-(4-methoxyphenyl)ethyl]-4-piperidinyl]-methyl]-1H-imidazo-[4,5-c]pyridine], 0.08 mg/kg; to `O=C(c1ccco1)N(CCN1CCC(Cc2nc3ccccc3n2Cc2ccco2)CC1)c1ncccn1` [Compound 509, N-[2-[4-[[1-(2-furanylmethyl)-1H-benzimidazol-2-yl]methyl]-1-piperidinyl]-ethyl]-N-(2-pyrimidinyl)-2-furancarboxamide], 0.02 mg/kg. As to `COc1ccc(CCN2CCC(Cc3nc4ccccc4n3Cc3cscn3)CC2)cc1` [Compound 245, 2-[[1-[2-(4-methoxyphenyl)ethyl]-4-piperidinyl]methyl]-1-(4-thiazolylmethyl)-1H-benzimidazole], the ED50 is 0.02 mg/kg. On the same count and under the same terms, to `c1cnc(NCCN2CCC(Cc3nc4cccnc4n3Cc3ccco3)CC2)nc1` [Compound 339] belongs 0.01 mg/kg; to `c1ccc(Cn2c(CC3CCN(CCNc4nccs4)CC3)nc3ccccc32)cc1` [Compound 363], 0.04 mg/kg; to `CNCCN1CCC(Cc2nc3ccccc3n2Cc2ccc(F)cc2)CC1` [Compound 513, 4[[1-[(4-fluorophenyl)methyl]-1H-benzimidazol-2-yl]methyl]-N-methyl-1-piperidineethanamine], 0.08 mg/kg. Take `c1coc(Cn2c(CC3CCN(CCNc4nc5cnccc5[nH]4)CC3)nc3cccnc32)c1` [Compound 417, N-[2-[4-[[3-(2-furanylmethyl)-3H-imidazo[4,5-b]pyridin-2-yl]methyl]-1-piperidinyl]ethyl]-1H-imidazo[4,5-c]pyridin-2-amine]: the ED50 was found to be 0.04 mg/kg. For `CCOC(=O)NCCN1CCC(Cc2nc3ccccc3n2Cc2cscn2)CC1` [Compound 248], the ED50 was 0.04 mg/kg.

In the case of `Fc1ccc(Cn2c(CC3CCN(Cc4ccccc4)CC3)nc3ncccc32)cc1` [Compound 23, 1-[(4-fluorophenyl)methyl]-2-[[1-(phenylmethyl)-4-piperidinyl]methyl]-1H-imidazo[4,5-b]pyridine], the ED50 was 0.08 mg/kg. On the same count and under the same terms, the figure for `OCCN1CCC(Sc2nc3ccccc3n2Cc2ccc(F)cc2)CC1` [Compound 104, 4-[[1-[(4-fluorophenyl)-methyl]-1H-benzimidazol-2-yl]thio]-1-piperidineethanol] is 0.08 mg/kg; for `COc1ccc(Cn2c(CC3CCN(CCO)CC3)nc3ccccc32)cc1` [Compound 110, 4-[[1-[(4-methoxyphenyl)methyl]-1H-benzimidazol-2-yl]methyl]-1-piperidineethanol] it is 0.02 mg/kg; for `Fc1ccc(Cn2c(CC3CCNCC3)nc3cccnc32)cc1` [Compound 45, 3-[(4-fluorophenyl)methyl]-2-(4-piperidinylmethyl)-3H-imidazo[4,5-b]-pyridine] it is 0.04 mg/kg. On the same count and under the same terms, the figure for `CN1CCC(Cc2nc3ccccc3n2Cc2ccccc2)CC1` [Compound 93] is 0.04 mg/kg; for `S=C=NCCN1CCC(Cc2nc3cccnc3n2Cc2cccs2)CC1` [Compound 402] it is 0.04 mg/kg.

The test is the same for the next values; noted with them: s.c. or p.o. 1 h before compound 48/80 0.5 mg/kg i.v.; protection of 50% of animals, survival after 4 hours; 0.5 mg/kg, 240 min.
`Cc1nc2n(c(=O)c1CCN1CCC(Cc3nc4ccccc4n3Cc3ccco3)CC1)CCS2` [Compound 167]: the “Compound 48/80 lethality test in rats ED50” value was determined as 0.01 mg/kg body weight.
